In US7691858B2, “Kinase inhibitors and methods of use thereof” (TargeGen, Inc., priority 2006, dated 2010):
Entries after “also recorded” stand apart in the source; their conditions may differ.

Experiments:
EGFR = EGFR (Homo sapiens, UniProt P00533); experiment: Kinase panel screen; type: biochemical; conditions: Compound I and ATP 10 μM
TBK1 = target: T1, TBK1 (Homo sapiens, UniProt Q9UHD2); experiment: Kinase panel screen; type: biochemical; conditions: Compound I and ATP 10 μM
T1 construct: purchased Upstate USA or Invitrogen (contract screening service)

Rsk1 = target: T2, Rsk1 (Rattus norvegicus, UniProt Q63531); experiment: Kinase panel screen; type: biochemical; conditions: Compound I and ATP 10 μM
T2 construct: purchased Upstate USA or Invitrogen (commercial screening service)

PRAK = target: T3, PRAK (Homo sapiens, UniProt Q8IW41); experiment: Kinase panel screen; type: biochemical; conditions: Compound I and ATP 10 μM
T3 construct: purchased Upstate USA or Invitrogen (contract screening service)

CDK7 = target: T4, CDK7 (Homo sapiens, UniProt P50613); experiment: Kinase panel screen; type: biochemical; conditions: Compound I and ATP 10 μM
T4 construct: purchased Upstate USA or Invitrogen (contract screening service)

JNK2a2 = JNK2a2 (Homo sapiens, UniProt P45984); experiment: Kinase panel screen; type: biochemical; conditions: Compound I and ATP 10 μM
MAPKAP-K3 = target: T5, MAPKAP-K3 (Homo sapiens, UniProt Q16644); experiment: Kinase panel screen; type: biochemical; conditions: Compound I and ATP 10 μM
T5 construct: purchased Upstate USA or Invitrogen (commercial screening service)

histamine-induced edema = experiment: Miles assay, histamine as agonist; type: in vivo, Sprague-Dawley rats; conditions: rats, Compound I pretreatment (1 mg/kg in FIG. 4)
Description: Sprague-Dawley rats were first injected IV with vehicle alone or test agent, followed by IV injection of Evans blue dye, followed by intradermal injections of saline and VEGF (200 ng/injection site) along both shaved flanks. […] The ability of test agents to influence edema induced by agonists other than VEGF was also tested. Compounds cited in this application inhibited edema formation induced using histamine as an agonist, for example, as shown below. The ability of test agent to influence vascular edema was tested as above, except that the ability to block edema was tested using either VEGF or histamine as the agonist (200 ng and 10 μg/injection site, respectively).

FGFR3 = target: T6, FGFR3 (Homo sapiens, UniProt P22607); experiment: Kinase panel screen; type: biochemical; conditions: Compound I and ATP 10 μM
T6 construct: purchased Upstate USA or Invitrogen (contract screening service)

myocardial infarct = experiment: Porcine MI model; type: in vivo, pig
Description: PI3Kγ/δ inhibition limits infarct development in a porcine MI model. In a final series of studies, MIs were modeled in the pig, as this species better approximates human coronary anatomy and responses to myocardial I/R injury. With aggressive model parameters of a 90 min ischemic period, therapeutic dosing 30 min post-reperfusion and infarct measurement at 24 h, we typically observed ischemic zones representing 20-30% of the total LV and 20-30% infarction of this area in control animals. […] Measuring infarct area as percent of total LV ischemic area, infarct size was reduced by 35% (P=0.04). […] Finally, taking advantage of the larger porcine heart to make more detailed measurements, infarct areas within the LV free wall only (as opposed to the free plus attached wall measurements reported up to this point) were also determined, reasoning that free wall infarcts are of greatest relevance to overall myocardial function.
Porcine MI model: All animal studies followed current “NIH Guidelines for the Use of Laboratory Animals” and were performed according to IACUC-approved protocols. Farm swine (Landrace-Duroc cross, 32-41 kg) were acclimated for 1-3 weeks prior to study group randomization. On the day of surgery, animals (fasted overnight) were first administered aspirin, clopridogrel and nifedipine (650, 300 and 300 mg p.o., respectively), followed by atropine sulfate and telazol (0.05 and 7 mg/kg i.m., respectively). Anesthesia was then induced with ketamine and xylazine (25 mg/kg each i.m.) followed by intubation and maintenance on inhaled isoflurane; body temperature was maintained at 35-37° C. using heating pads. For each animal, the ventral neck was shaved and scrubbed with iodine, an arterial sheath inserted into the carotid artery, and under fluoroscopic guidance a guide catheter advanced to the coronary artery ostium. Angiographic images were used to guide angioplasty balloon placement (below the first major LAD bifurcation). After advancing through the guide catheter to the proper location, the balloon was inflated at a steady rate to a pressure sufficient to ensure complete occlusion of the LAD (verified by fluoroscopy), and occlusion maintained for 90 min. Blood pressure was monitored throughout the surgical procedure and adjusted as needed, and ECG monitored for arrhythmias as well as to confirm LAD occlusion. Lactated Ringer's solution was maintained as an i.v. drip (via the auricular vein), and heparin given to maintain an activated clotting time of ˜300 seconds. […] At the end of the ischemic period, the balloon was deflated and removed, and the ischemic area allowed to reperfuse (again verified by fluoroscopy). Catheters were removed, the arterial access ligated, the surgical area closed in layers and buprenorphine (0.01 mg/kg i.m.) administered.
On Study Day 2 (24 hr post-LAD occlusion), a surgical plane of anesthesia was established with sodium pentobarbital, and the LAD exposed and occluded using a suture snare at the same level as previously. Evans blue dye (100 ml of 0.1% saline solution) was injected i.v. and allowed to circulate for 5 min prior to explanting the heart. Hearts were cut into approximately 1 cm short axis slices and TTC stained and photographed as described for the rodent MI model. […]

PKBy = target: T7, PKBy (Homo sapiens, UniProt Q9Y243); experiment: Kinase panel screen; type: biochemical; conditions: read-out: Percent Control, PKBy
T7 construct: purchased Upstate USA or Invitrogen (contract screening service)

SAPK2a = target: T8, SAPK2a (Homo sapiens, UniProt Q16539); experiment: Kinase panel screen; type: biochemical; conditions: Compound I and ATP 10 μM
T8 construct: purchased Upstate USA or Invitrogen (commercial screening service)

Flt1 = target: T9, Flt1 (Homo sapiens, UniProt P17948); experiment: Kinase panel screen; type: biochemical; conditions: Compound I and ATP 10 μM
T9 construct: purchased Upstate USA or Invitrogen (commercial screening service)

Ros = target: T10, Ros (Homo sapiens, UniProt P08922); experiment: Kinase panel screen; type: biochemical; conditions: Compound I and ATP 10 μM
T10 construct: purchased Upstate USA or Invitrogen (commercial screening service)

FGFR4 = target: T11, FGFR4 (Homo sapiens, UniProt P22455); experiment: Kinase panel screen; type: biochemical; conditions: Compound I and ATP 10 μM
T11 construct: purchased Upstate USA or Invitrogen (contract screening service)

IKKa = target: T12, IKKa (Homo sapiens, UniProt O15111); experiment: Kinase panel screen; type: biochemical; conditions: Compound I and ATP 10 μM
T12 construct: purchased Upstate USA or Invitrogen (commercial screening service)

EphB4 = target: T13, EphB4 (Homo sapiens, UniProt P54760); experiment: Kinase panel screen; type: biochemical; conditions: Compound I and ATP 10 μM
T13 construct: purchased Upstate USA or Invitrogen (commercial screening service)

PKCpi = target: T14, PKCpi (Homo sapiens, UniProt P05771); experiment: Kinase panel screen; type: biochemical; conditions: Compound I and ATP 10 μM
T14 construct: purchased Upstate USA or Invitrogen (commercial screening service)

PKBa = target: T15, PKBa (Homo sapiens, UniProt P31749); experiment: Kinase panel screen; type: biochemical; conditions: read-out: Percent Control, PKBa
T15 construct: purchased Upstate USA or Invitrogen (contract screening service)

MAPK3 = target: T16, MAPK3 (Homo sapiens, UniProt P27361); experiment: Kinase panel screen; type: biochemical; conditions: Compound I at 1 μM and ATP at the apparent Km
T16 construct: purchased Upstate USA or Invitrogen (commercial screening service)

[1] = single 0.5 mg/kg i.v. bolus 30 min post-reperfusion, 24 h

T11 sequence (P22455 22-802): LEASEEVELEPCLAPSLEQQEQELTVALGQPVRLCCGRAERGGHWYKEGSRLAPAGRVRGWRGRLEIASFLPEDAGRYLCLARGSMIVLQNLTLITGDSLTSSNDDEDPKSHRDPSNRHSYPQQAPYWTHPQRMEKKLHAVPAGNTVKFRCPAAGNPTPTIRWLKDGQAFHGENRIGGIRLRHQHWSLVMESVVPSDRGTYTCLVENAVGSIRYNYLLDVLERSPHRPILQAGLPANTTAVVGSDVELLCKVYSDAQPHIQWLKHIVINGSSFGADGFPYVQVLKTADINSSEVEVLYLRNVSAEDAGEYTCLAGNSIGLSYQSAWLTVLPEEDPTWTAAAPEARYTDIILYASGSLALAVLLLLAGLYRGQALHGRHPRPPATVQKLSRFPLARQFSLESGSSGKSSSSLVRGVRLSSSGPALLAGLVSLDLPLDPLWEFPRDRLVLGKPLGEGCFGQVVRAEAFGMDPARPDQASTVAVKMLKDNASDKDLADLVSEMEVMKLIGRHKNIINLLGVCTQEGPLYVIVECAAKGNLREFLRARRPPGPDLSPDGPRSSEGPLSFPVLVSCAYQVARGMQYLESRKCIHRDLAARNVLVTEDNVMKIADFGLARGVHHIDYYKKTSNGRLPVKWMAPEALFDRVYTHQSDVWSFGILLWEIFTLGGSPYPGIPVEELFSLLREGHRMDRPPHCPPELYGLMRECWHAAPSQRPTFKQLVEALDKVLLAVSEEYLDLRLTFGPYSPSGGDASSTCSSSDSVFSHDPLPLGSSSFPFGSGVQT
Sequence of JNK2a2 (P45984 whole entry): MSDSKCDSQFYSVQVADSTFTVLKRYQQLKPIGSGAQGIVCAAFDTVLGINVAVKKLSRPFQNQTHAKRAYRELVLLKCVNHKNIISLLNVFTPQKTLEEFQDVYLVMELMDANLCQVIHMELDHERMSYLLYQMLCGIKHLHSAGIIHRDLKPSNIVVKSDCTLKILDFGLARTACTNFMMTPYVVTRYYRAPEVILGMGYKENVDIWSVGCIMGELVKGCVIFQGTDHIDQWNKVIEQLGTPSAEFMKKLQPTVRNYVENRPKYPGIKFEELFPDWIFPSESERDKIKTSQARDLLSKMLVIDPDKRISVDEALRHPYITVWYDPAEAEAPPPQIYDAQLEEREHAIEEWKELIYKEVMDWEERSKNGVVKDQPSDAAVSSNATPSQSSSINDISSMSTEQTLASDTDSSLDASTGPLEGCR
T1 sequence (Q9UHD2 whole entry): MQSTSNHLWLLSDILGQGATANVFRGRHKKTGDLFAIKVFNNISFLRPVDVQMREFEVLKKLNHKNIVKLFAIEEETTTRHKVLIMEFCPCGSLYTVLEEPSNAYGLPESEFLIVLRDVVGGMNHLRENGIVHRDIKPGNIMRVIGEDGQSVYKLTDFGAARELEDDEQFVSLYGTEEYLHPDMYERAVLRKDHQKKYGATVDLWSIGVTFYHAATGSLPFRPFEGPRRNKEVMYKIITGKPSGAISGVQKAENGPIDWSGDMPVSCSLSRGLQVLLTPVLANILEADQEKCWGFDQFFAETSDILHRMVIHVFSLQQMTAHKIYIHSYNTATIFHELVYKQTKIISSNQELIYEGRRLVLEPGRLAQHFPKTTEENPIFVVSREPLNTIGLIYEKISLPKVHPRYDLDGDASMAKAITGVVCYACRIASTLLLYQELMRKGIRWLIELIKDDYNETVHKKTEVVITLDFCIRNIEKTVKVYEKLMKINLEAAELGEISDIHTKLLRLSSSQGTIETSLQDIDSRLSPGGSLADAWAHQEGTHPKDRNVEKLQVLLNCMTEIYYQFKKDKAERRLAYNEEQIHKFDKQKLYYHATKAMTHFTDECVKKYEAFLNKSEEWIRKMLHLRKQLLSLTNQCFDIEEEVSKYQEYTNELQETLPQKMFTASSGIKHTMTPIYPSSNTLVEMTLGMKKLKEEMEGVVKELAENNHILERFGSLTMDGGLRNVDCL
T2 sequence (Q63531 whole entry): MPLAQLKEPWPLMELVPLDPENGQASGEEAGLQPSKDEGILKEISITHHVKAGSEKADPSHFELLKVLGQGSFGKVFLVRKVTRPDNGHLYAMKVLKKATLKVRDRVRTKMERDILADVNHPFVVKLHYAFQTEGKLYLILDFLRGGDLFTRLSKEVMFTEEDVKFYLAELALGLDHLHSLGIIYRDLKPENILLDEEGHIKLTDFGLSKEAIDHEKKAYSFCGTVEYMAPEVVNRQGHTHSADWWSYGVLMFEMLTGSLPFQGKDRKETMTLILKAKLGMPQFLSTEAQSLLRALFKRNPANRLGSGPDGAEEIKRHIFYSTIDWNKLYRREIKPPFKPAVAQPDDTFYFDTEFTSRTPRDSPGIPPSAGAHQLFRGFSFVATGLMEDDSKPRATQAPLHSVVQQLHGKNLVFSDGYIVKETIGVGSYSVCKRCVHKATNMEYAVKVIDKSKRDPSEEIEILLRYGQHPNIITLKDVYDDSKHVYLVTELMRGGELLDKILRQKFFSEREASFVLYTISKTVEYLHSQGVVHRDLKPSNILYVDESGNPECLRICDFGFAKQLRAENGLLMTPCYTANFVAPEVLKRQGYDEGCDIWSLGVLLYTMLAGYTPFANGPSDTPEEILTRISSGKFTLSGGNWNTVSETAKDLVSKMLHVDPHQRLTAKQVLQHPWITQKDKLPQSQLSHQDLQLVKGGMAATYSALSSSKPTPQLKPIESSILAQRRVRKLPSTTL
T3 sequence (Q8IW41 whole entry): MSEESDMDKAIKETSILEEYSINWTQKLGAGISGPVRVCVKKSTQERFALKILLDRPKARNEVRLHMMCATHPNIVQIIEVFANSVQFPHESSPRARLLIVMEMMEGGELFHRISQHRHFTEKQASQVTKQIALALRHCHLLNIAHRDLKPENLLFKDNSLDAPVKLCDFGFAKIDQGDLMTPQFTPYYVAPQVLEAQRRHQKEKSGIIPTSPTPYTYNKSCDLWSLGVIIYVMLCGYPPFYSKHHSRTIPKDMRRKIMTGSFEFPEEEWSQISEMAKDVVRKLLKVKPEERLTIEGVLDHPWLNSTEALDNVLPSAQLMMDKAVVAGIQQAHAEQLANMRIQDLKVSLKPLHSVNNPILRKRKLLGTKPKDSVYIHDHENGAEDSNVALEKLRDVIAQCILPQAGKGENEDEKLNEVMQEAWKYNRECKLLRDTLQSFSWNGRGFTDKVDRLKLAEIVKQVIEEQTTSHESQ
T4 sequence (P50613 whole entry): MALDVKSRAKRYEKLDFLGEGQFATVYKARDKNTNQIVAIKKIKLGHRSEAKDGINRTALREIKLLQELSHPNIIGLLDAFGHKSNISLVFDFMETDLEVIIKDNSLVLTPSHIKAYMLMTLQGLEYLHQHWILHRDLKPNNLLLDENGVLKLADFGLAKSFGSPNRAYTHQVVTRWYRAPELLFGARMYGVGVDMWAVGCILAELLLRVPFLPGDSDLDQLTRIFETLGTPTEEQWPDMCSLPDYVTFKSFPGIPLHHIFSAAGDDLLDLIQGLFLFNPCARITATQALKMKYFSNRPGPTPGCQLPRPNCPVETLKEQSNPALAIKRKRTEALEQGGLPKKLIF
T4 sequence (P51946 whole entry partner): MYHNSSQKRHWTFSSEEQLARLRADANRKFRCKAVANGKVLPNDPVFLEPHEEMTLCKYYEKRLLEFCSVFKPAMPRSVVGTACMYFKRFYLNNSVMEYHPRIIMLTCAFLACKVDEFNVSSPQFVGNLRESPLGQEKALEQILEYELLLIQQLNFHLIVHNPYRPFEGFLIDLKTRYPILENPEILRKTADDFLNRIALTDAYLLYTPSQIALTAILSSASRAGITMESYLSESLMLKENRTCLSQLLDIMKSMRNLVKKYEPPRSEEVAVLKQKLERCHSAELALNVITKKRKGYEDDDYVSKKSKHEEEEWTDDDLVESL
T4 sequence (P51948 whole entry partner): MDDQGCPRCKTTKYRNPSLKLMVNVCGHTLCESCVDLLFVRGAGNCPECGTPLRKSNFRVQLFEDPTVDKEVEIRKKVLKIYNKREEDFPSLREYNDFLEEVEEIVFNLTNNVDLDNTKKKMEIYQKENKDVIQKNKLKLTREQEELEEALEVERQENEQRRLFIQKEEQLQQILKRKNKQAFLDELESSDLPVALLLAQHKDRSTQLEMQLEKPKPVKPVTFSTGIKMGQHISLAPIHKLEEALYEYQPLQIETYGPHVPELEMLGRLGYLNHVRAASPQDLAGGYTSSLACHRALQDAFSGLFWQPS
T5 sequence (Q16644 whole entry): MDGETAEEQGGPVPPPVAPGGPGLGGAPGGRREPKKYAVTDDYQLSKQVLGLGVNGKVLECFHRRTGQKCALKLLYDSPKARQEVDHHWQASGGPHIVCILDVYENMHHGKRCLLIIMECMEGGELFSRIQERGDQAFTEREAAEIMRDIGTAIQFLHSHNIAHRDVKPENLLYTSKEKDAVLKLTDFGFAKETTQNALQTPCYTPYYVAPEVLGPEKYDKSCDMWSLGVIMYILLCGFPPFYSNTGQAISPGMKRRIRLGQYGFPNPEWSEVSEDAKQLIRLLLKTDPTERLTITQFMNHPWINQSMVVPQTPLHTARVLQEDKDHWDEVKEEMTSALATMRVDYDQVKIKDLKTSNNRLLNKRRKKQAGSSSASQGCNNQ
T15 sequence (P31749 whole entry): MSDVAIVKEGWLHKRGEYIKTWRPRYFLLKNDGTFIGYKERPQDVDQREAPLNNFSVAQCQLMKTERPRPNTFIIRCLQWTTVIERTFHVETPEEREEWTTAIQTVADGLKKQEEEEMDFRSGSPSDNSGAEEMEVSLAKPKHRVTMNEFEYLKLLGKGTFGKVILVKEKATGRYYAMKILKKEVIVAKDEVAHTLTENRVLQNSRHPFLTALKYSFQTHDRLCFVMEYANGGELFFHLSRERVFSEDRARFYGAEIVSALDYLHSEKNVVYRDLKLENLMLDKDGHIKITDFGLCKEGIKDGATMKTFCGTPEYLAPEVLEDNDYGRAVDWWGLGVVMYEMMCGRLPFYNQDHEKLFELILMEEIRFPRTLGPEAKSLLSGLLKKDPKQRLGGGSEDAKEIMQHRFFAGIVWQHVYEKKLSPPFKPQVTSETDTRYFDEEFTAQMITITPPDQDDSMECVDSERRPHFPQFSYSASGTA

With Nc1nc(N)c2nc(-c3cccc(O)c3)c(-c3cccc(O)c3)nc2n1 [Compound I, 6,7-bis-(3-hydroxyphenyl)-pteridine-2,4-diamine] the “Percent Control, EGFR” value (EGFR) was 99%, the “Percent Control, TBK1” value (TBK1) was 89% and the “Percent Control, Rsk1 (r)” value (Rsk1) was 86%. The “Percent Control, PRAK” value (PRAK) was 63%, the “Percent Control, CDK7” value (CDK7) was 82% and the “Percent Control, JNK2a2” value (JNK2a2) was 91%. For the same compound, the “Percent Control, MAPKAP-K3” value (MAPKAP-K3) was 93%, the “histamine-induced permeability / edema formation” value (histamine-induced edema) was “blocked; also recorded: reduced edema formation” and the “Percent Control, FGFR3” value (FGFR3) was 66%. The “reduction of infarct size vs. controls” value (myocardial infarct; single 0.3 mg/kg IV bolus 30 min post-reperfusion, N=12-13) was 32%, the infarct size (myocardial infarct; single 0.3 mg/kg IV bolus 30 min post-reperfusion, controls 56%) was 40% and the “increase in viable tissue within the ischemic zone” value (myocardial infarct; [1]) was 37%. The “reduction of free wall infarct size vs. vehicle-treated controls” value (myocardial infarct; [1]) was 38%, the “reduction of infarct size (infarct area as percent of total LV ischemic area)” value (myocardial infarct; [1]) was 35% and the remaining activity at 10 µM (PKBy) was 98%. The “Percent Control, SAPK2a” value (SAPK2a) was 55%, the “Percent Control, Flt1” value (Flt1) was 62% and the “Percent Control, Ros” value (Ros) was 90%. The “Percent Control, FGFR4” value (FGFR4) was 94%, the “Percent Control, IKKa” value (IKKa) was 100% and the “Percent Control, EphB4” value (EphB4) was 68%. For the same compound, the “Percent Control, PKCpi” value (PKCpi) was 90%, the remaining activity at 10 µM (PKBa) was 62% and the “Percent Control, MAPK3*” value (MAPK3) was 99%.
